The text below walks through data of patent publication US10407712B2, “Methods, compositions and kits for high throughput kinase activity screening using mass spectrometry and stable isotopes” (President and Fellows of Harvard College, priority 2008, dated 2019).

In one assay the test system is HeLa cell lysates. In words: KAYAK in vitro kinase assay, lysates of asynchronous, G1/S- or G2/M-arrested HeLa cells. Format: biochemical, human. As to conditions: for G2/M: changed phosphorylation: G2/M phase compared to asynchronously growing HeLa cells; for G1/S: changed phosphorylation: G1/S phase compared to asynchronously growing HeLa cells. The protocol:
For cell cycle examples, HeLa cells were synchronized by double thymidine block for G1/S-arrest and by 0.2 μg/ml nocodazole for G2/M-arrest as described (Dephoure et al. 2008 Proc Natl Acad Sci USA 105: 10762-10767). Synchronization was confirmed by flow cytometry.
(§1) For cell lysis, the media were removed, and cells were washed with ice-cold phosphate-buffered saline (PBS) and lysed with ice-cold lysis buffer (10 mM K2HPO4 pH 7.5, 1 mM EDTA, 10 mM MgCl2, 50 mM β-glycerophosphate, 5 mM EGTA, 0.5% Nonidet P-40, 0.1% Brij 35, 0.1% deoxycholic acid, 1mM sodium orthovanadate, 1mM phenylmethyl-sulfonyl fluoride, 5 μg/ml leupeptin and 5 μg/ml pepstatin A). Lysates were centrifuged at 10,000 rpm for 10 min to remove cell debris, and clear supernatant was used for immunoblotting and in vitro kinase assays. Protein concentration was determined by Bradford assay (Biorad, Hercules, Calif.).
(§2) Peptides were synthesized, purified and quantified as described in Yu et al. 2009 Proc Natl Acad Sci USA 106: 11606-11611, hereby incorporated by reference herein in its entirety. Each substrate peptide (250 pmol) was mixed to a final concentration of 5 μM in the 50 μL reaction mixture. Alternatively, reactions were performed using 6 μg cell lysate aliquotes mixed to a final volume of 20 μl. Cell lysate or other kinase source was added to the substrate mixture in 25 mM Tris-Cl, pH 7.5, containing 5 mM ATP, 7.5 mM MgCl2, 0.2 mM EGTA, 7.5 mM β-glycerophosphate, 0.1 mM Na3VO4, and 0.1 mM DTT. The reaction was incubated at 25° C. for 60 min and then terminated by the addition of 100 μl of 1% trifluoroacetic acid (TFA) containing a known amount of an internal standard (typically 20 pmol). Alternatively, the reaction was incubated at 20° C. for 45 min before termination with TFA.
(§3) Forty-five individual in vitro kinase reaction mixtures were combined and desalted by using Sep-Pak C18 cartridge (Waters, Milford, Mass.). Phosphopeptides were enriched by immobilized metal ion chromatography (IMAC) with 20 μl of beads (Phos-Select iron affinity gel; Sigma, St. Louis, Mo.) and subsequently desalted by using Empore C18 solid phase extraction disks (3M, St. Paul, Minn.) as described previously.
(§4) Quantitation of the target peptide-internal standard ratios was performed by first constructing the extracted ion chromatogram for the most abundant charge state for each peptide using a ±10 ppm window. Chromatograms were integrated using Qual/Quan browser (Xcalibur 2.0.5, Thermo Fisher, San Jose, Calif.). Since the phosphorylated peptides generated from the in vitro kinase reactions were chemically identical to the internal standards, they were assumed to have the same ionization efficiency. Therefore, the amount of each phosphorylated peptide was calculated by direct ratio to the internal standard level.
(§5) To test substrate suitability in a multiplexed assay, the phosphorylation activities were measured using […] of each substrate peptide, 6 μg lysate, and 5 mM ATP in a plate format. Reactions proceeded for 60 minutes followed by acidification and the addition of isotope-labeled reference peptides. After pooling 45 samples, phosphopeptide enrichment was followed by liquid-chromatography (LC) separation and on-line peptide detection by high-resolution mass spectrometry.
In order to examine target peptides with cell-cycle-dependent phosphorylation, kinase activities in asynchronously growing HeLa cells were profiled and the profiles were compared with those of cells synchronized in G1/S and G2/M phase using a double-thymidine block and nocodazole arrest, respectively (FIG. 3B).

A further assay deals with HEK293 cell lysates. The assay is described as follows: KAYAK in vitro kinase assay, individual reactions, lysates of starved, insulin- or EGF-stimulated HEK293 cells. Format: biochemical, human. As to conditions: for E: changed phosphorylation in EGF stimulated condition: EGF-stimulated compared to starved HEK293 cells. The protocol: For stimulation of HEK293 cells or HeLa lines, cells were treated with insulin (100 nM; 10-30 min) EGF (50 ng/ml; 10 min) or phorbol 12-myristate 13-acetate (PMA; 50 or 100 ng/ml; 10 -30 min) at 37° C. for the indicated times after overnight serum-starvation.
as §1, §2, §3, §4, §5
The ability of the peptides to report specific changes in kinase activation after pathway stimulation was examined herein. Lysates from HEK293 cells were collected after insulin or EGF treatment and were compared to their activities in the serum-starved state using the KAYAK approach. Western blot analysis of lysates from cells in which the PI3K and MAPK pathways were activated, as indicated by elevated phospho-Akt and phospho-ERK1/2 levels, respectively, is shown in FIG. 1D. […]

The next assay addresses T1, recombinant RSK1 (Homo sapiens, UniProt Q15418).
T1 construct: 90 kDa ribosomal S6 kinases 1 (RSK1, 1-735); purchased Cell Signaling Technology (Danvers, Mass.)
The assay is described as follows: In vitro peptide phosphorylation by purified RSK. Format: biochemical.
Source text: Reaction mixture was supplemented with 0.1% BSA. Other conditions were the same as in FIG. 10A.
Purified human active kinases of Akt1 (full length), extracellular signal-regulated kinase 1 (ERK1, 1-379), mitogen-activated protein kinase kinase 1 (MEK1, 1-393), 90 kDa ribosomal S6 kinases 1 (RSK1, 1-735), cAMP-dependent protein kinase (PKA) catalytic subunit-α (PKA Cα, 1-351), protein kinase Cα (PKCα, full length), epidermal growth factor (EGF) receptor (EGFR, 672-1210), platelet-derived growth factor (PDGF) receptor α (PDGFRα, 550-1090), vascular endothelial growth factor (VEGF) receptor 1 (VEGFR1 784-1338), Src (full length), casein kinase 2 (CK2, full length), Aurora A (1-403), AMP-activated protein kinase α1β1γ1 (AMPK α1β1γ1, full length), glycogen synthase kinase-3α (GSK-3α, 1-483) and MAP/microtubule affinity-regulating kinase 1 (MARK 1, full length) were obtained from Cell Signaling Technology (Danvers, Mass.). Cdc2/cyclin B1 (full length) and insulin-like growth factor (IGF)-I receptor (IGFIR, 959-1367) were obtained from Upstate (Temecula, Calif.).
as §2, with “Each substrate peptide (250 pmol) was mixed to a final concentration of 5 μM in the 50 μL reaction mixture.” left out
It was observed that basal phosphorylation of these peptides was not affected by knockdown and likely was the result of remaining RSK isoforms or other basophilic kinases (FIG. 5C).

The next assay deals with PI3K and MAPK pathways. The assay is described as follows: KAYAK profiling of cancer cell lines with or without gefitinib: PI3K and MAPK activity. In kind it is cell-based, human. The protocol:
MCF7 and MBA-MB231 cells were maintained in DMEM supplemented with 10% FBS. Sum159 cells were maintained in Ham's F12 media supplemented with 5% FBS, 5μg/ml hydrocortisone. MCF10A, MCF10A, ErbB2, MCF10A/IGFR, and MCF10A/H-Ras^G12V cells were generously provided by J. Brugge (Debnath et al. 2002 Cell 111: 29-40; Irie et al. 2005 J Cell Biol 171: 1023-1034; Reginato et al. 2003 Nat Cell Biol 5: 733-740) and were maintained in 50/50 DMEM/F12 media supplemented with 5% horse serum, 20 ng/ml EGF, 100 ng/ml cholera toxin, 10 μg/ml insulin, and 500 ng/ml hydrocortisone. Breast cancer cells were treated also with 1 μM of gefitinib (LC laboratories) for 24 h before lysis and KAYAK analysis. The mutation data was obtained from Wellcome Trust Sanger Institute Cancer Genome Project Web site (Hollestele et al. 2007 Mol Cancer Res 5:195-201).
as §2
In tumors, activating mutations are often found in core signaling pathways (McLendon et al. 2008 Nature 455: 1061-1068). […]. The cell lines were chosen to represent the highly heterogeneous nature of breast cancer.

T1 sequence (Q15418 whole entry): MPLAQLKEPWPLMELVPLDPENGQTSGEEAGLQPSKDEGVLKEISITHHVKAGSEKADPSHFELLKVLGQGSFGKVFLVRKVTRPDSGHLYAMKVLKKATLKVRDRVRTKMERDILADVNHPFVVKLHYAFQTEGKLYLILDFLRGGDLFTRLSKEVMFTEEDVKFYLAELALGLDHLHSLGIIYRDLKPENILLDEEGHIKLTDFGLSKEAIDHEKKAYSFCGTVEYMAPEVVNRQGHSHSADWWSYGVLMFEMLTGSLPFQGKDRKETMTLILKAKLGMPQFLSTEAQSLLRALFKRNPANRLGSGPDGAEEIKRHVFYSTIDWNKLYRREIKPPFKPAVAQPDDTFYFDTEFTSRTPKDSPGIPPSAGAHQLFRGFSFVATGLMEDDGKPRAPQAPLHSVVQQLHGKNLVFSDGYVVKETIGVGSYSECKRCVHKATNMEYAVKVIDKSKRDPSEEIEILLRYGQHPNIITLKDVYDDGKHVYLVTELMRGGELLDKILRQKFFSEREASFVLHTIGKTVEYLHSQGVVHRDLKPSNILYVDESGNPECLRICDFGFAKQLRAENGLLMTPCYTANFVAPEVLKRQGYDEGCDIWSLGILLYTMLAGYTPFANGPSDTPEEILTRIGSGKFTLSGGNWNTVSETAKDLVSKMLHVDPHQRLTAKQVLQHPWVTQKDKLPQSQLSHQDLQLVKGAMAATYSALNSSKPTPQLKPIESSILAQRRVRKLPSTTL

For the compound “PKRKVSSAEGPFR (The sequence was designed and synthesized) [B6]”, the “G2/M: changed phosphorylation” value with HeLa cell lysates is “− (A change of more +2 fold and −2 fold is indicated by “+” and “−”, respectively.)”. For the same compound, the “E: changed phosphorylation in EGF stimulated condition” value (from here on “E: changed phosphorylation”) in the assay on HEK293 cell lysates was “+ (A change of more +2 fold and −2 fold is indicated by “+” and “−”, respectively.)”. For the same compound, the “increase in phosphorylation after EGF” value in the assay on HEK293 cell lysates (EGF-stimulated vs serum-starved HEK293 lysate) was 3 fold. Besides, the “phosphorylation by recombinant RSK1 in vitro” value (from here on “phosphorylation … in vitro”) in the assay with recombinant RSK1 is “robustly phosphorylate”.
For the compound `COc1cc2ncnc(Nc3ccc(F)c(Cl)c3)c2cc1OCCCN1CCOCC1` [gefitinib], the “activation of MAPK after treatment” value in the assay with PI3K and MAPK pathways (HeLa cells, 1 μM) is reported as “not to be affected”. Further, the “activity in PI3K and MAPK pathway after treatment” value in the assay on PI3K and MAPK pathways (MCF7, 1 μM, 24 h) is recorded as “decreased activity”. In addition, the “MAPK activity after treatment” value with PI3K and MAPK pathways (MCF10A cells overexpressing RasV12, 1 μM, 24 h) is “gefitinib-resistance”; in the assay with PI3K and MAPK pathways (MDA-MB231 cells, 1 μM, 24 h), “completely refractory”; in the assay on PI3K and MAPK pathways (Sum159 cells, 1 μM, 24 h), “some sensitivity”. For the same compound, the “PI3K and MAPK activity after treatment” value in the assay on PI3K and MAPK pathways (MCF10A/ErbB2, 1 μM, 24 h) was “strongly inhibited”; in the assay with PI3K and MAPK pathways (MCF10A/IGFR, 1 μM, 24 h), “strongly inhibited”; in the assay on PI3K and MAPK pathways (normal MCF10A cells, 1 μM, 24 h) it was “strongly inhibited”.
For “KKKRFSFKKSPFR (The sequence was designed and synthesized) [G10]”, the “conversion of the substrate” value in the assay with HEK293 cell lysates (serum-starved HEK293 lysate, 100 μM peptide, 6 μg lysate, 60 min, highest activity peptide) was 18%.
In the case of “IPTGTTPQRKPFR (The sequence was designed and synthesized) [C2]”, in the assay with HeLa cell lysates (G2/M (nocodazole-arrested) HeLa lysate vs asynchronously growing cells), the “increase in phosphorylation in G2/M” value is given as 19 fold. Further, in the assay with HeLa cell lysates, the “G2/M: changed phosphorylation” value is “++ (A change of more than +4 and −4 fold is indicated by “++” and “−−”, respectively.)”.
On to “IPINGSPRTPPFR (The sequence was designed and synthesized) [B4]”, for which, in the assay with HeLa cell lysates, the “G2/M: changed phosphorylation” value was “++ (A change of more than +4 and −4 fold is indicated by “++” and “−−”, respectively.)”. Further, in the assay with HEK293 cell lysates, the “E: changed phosphorylation” value was “+ (A change of more +2 fold and −2 fold is indicated by “+” and “−”, respectively.)”.
Consider “VKRQSSTPSAPFR (The sequence was designed and synthesized) [B7]”, for which, in the assay with HeLa cell lysates, the “G1/S: changed phosphorylation” value was “−− (A change of more than +4 and −4 fold is indicated by “++” and “−−”, respectively.)”; the “G2/M: changed phosphorylation” value is “−− (A change of more than +4 and −4 fold is indicated by “++” and “−−”, respectively.)”.
As for “NKRRGSVPILPFR (The sequence was designed and synthesized) [C11]”, in the assay with HEK293 cell lysates, the “E: changed phosphorylation” value was “+ (A change of more +2 fold and −2 fold is indicated by “+” and “−”, respectively.)”. Besides, in the assay with recombinant RSK1, the “phosphorylation … in vitro” value is on record as “robustly phosphorylate”.
As to “NLLPLSPEEFPFR (The sequence was designed and synthesized) [D7]”, in the assay on HeLa cell lysates, the “G1/S: changed phosphorylation” value was “−− (A change of more than +4 and −4 fold is indicated by “++” and “−−”, respectively.)”; the “G2/M: changed phosphorylation” value was “−− (A change of more than +4 and −4 fold is indicated by “++” and “−−”, respectively.)”.
As for “PSTNSSPVLKPFR (The sequence was designed and synthesized) [A12]”, the “G2/M: changed phosphorylation” value with HeLa cell lysates was “+ (A change of more +2 fold and −2 fold is indicated by “+” and “−”, respectively.)”.
“LKLSPSPSSRPFR (The sequence was designed and synthesized) [B11]”: in the assay with HeLa cell lysates, the “G1/S: changed phosphorylation” value is “+ (A change of more +2 fold and −2 fold is indicated by “+” and “−”, respectively.)”; the “G2/M: changed phosphorylation” value was “++ (A change of more than +4 and −4 fold is indicated by “++” and “−−”, respectively.)”.
On to “NQDPVSPSLVPFR (The sequence was designed and synthesized) [B5]”, for which, in the assay with HeLa cell lysates, the “G1/S: changed phosphorylation” value is “−− (A change of more than +4 and −4 fold is indicated by “++” and “−−”, respectively.)”; the “G2/M: changed phosphorylation” value is “− (A change of more +2 fold and −2 fold is indicated by “+” and “−”, respectively.)”.
Consider “SKRRNSEFEIPFR (The sequence was designed and synthesized) [G5]”, for which the “E: changed phosphorylation” value in the assay with HEK293 cell lysates is “+ (A change of more +2 fold and −2 fold is indicated by “+” and “−”, respectively.)”. For the same compound, in the assay with recombinant RSK1, the “phosphorylation … in vitro” value is reported as “robustly phosphorylate”.
For the compound “FKNIVTPRTPPFR (The sequence was designed and synthesized) [D10]”, in the assay with HeLa cell lysates, the “G2/M: changed phosphorylation” value is “++ (A change of more than +4 and −4 fold is indicated by “++” and “−−”, respectively.)”.
